# According to patent US7960339B2, “Antimicrobial peptides” (Österreichische Akademie der Wissenschaften, priority 2006, dated 2011):
# Peptide text beside a SMILES is read from it. * marks the point of attachment. Dicyclohexylacetyl = O=C(C(C1CCCCC1)C1CCCCC1)*; Butanoyl(2,2-Me2) = CCC(C)(C)C(=O)*; Octanoyl(6-Me) = CCC(C)CCCCC(=O)*; Octanoyl = CCCCCCCC(=O)*; X1 = CCCCC(CC)C(=O)*
# Tested on: C. neoformans ATCC 32045
# Type: cell-based
# Settings: ATCC 32045, 72 h
# Experimental: C. neoformans ATCC 32045 cultures were maintained on yeast medium (YM; Difco Laboratories, Detroit, Mich.) agar plates at 4° C. Prior to the assay, the cultures were grown on agar plates and incubated for 72 hrs at 26° C. Two colonies of these newly grown fungal cultures were then inoculated in 5 ml of 2×YM broth, vortexed, and diluted 10-fold in 2×YM broth, for an approximate final assay concentration of 1×105 to 5×10^5 CFU/ml. In 96-well tissue culture plates, fungal suspensions in 2×YM broth were added to the peptides dispensed at concentrations ranging from 1 mg/ml to 1 μg/ml derived from serial twofold dilutions in sterile water. The plates were then incubated for 72 hrs at 26° C. The relative percent growth of the fungi found for each test sample was determined by the optical density at 620 nm (OD620) by using a Titertek Multiskan Plus apparatus. […] The IC50 were calculated by using a sigmoidal curve-fitting software program (Graphpad Prism; ISI Software, San Diego, Calif.).
Structure (SMILES),average IC50,average MIC
"N=C(N)NCCC[C@H](NC(=O)[C@H](CCCNC(=N)N)NC(=O)[C@H](Cc1c[nH]c2ccccc12)NC(=O)[C@H](Cc1ccccc1)NC(=O)[C@H](CCCNC(=N)N)NC(=O)[C@H](CCCNC(=N)N)NC(=O)[C@H](Cc1c[nH]c2ccccc12)NC(=O)[C@H](Cc1ccccc1)NC(=O)C(C1CCCCC1)C1CCCCC1)C(N)=O [VS1-64, dicyclohexylacetyl FWRRFWRR-NH2] (Dicyclohexylacetyl-FWRRFWRR-NH2)",6 µg/mL,32 µg/mL
"CC[C@H](C)[C@H](NC(=O)[C@H](CCCCN)NC(=O)[C@H](CCCNC(=N)N)NC(=O)[C@H](CCCNC(=N)N)NC(=O)[C@H](Cc1c[nH]c2ccccc12)NC(=O)[C@@H]1CCCN1)C(=O)N[C@@H](CCCNC(=N)N)C(=O)N[C@@H](CCCNC(=N)N)C(N)=O [VS1-36, PWRRKIRR-NH2] (H-PWRRKIRR-NH2; N-terminus assumed)",11 µg/mL,62 µg/mL
"CC[C@H](C)[C@H](NC(=O)[C@H](CCCNC(=N)N)NC(=O)[C@@H](NC(=O)[C@H](CCCNC(=N)N)NC(=O)[C@H](Cc1c[nH]c2ccccc12)NC(=O)[C@H](Cc1ccccc1)NC(=O)[C@@H]1CCCN1)[C@@H](C)CC)C(=O)N[C@@H](CCCNC(=N)N)C(=O)N[C@@H](CCCNC(=N)N)C(=O)N[C@@H](CC(=O)O)C(N)=O [VS1-23, PFWRIRIRRD-NH2] (H-PFWRIRIRRD-NH2; N-terminus assumed)",4 µg/mL,8 µg/mL
"CC[C@H](C)[C@H](NC(=O)[C@H](CCCNC(=N)N)NC(=O)[C@H](C)NC(=O)[C@H](CCCNC(=N)N)NC(=O)[C@H](Cc1c[nH]c2ccccc12)NC(=O)[C@H](Cc1ccccc1)NC(=O)[C@@H]1CCCN1)C(=O)N[C@@H](CCCNC(=N)N)C(=O)N[C@@H](CCCNC(=N)N)C(N)=O [VS1-27, PFWRARIRR-NH2] (H-PFWRARIRR-NH2; N-terminus assumed)",8 µg/mL,32 µg/mL
"CC[C@H](C)[C@H](NC(=O)[C@H](CC(N)=O)NC(=O)[C@H](CCCNC(=N)N)NC(=O)[C@H](Cc1c[nH]c2ccccc12)NC(=O)[C@@H](N)Cc1ccccc1)C(=O)N[C@@H](CCCNC(=N)N)C(=O)N[C@@H](CCCCN)C(=O)N[C@@H](Cc1c[nH]c2ccccc12)C(=O)N[C@@H](CCCNC(=N)N)C(N)=O [VS1-20, FWRNIRKWR-NH2] (H-FWRNIRKWR-NH2; N-terminus assumed)",4 µg/mL,16 µg/mL
"CCCCCCCC(=O)N[C@@H](Cc1ccccc1)C(=O)N[C@@H](Cc1c[nH]c2ccccc12)C(=O)N[C@@H](CCC(N)=O)C(=O)N[C@@H](CCCNC(=N)N)C(=O)N[C@@H](CC(N)=O)C(=O)N[C@H](C(=O)N[C@@H](CCCNC(=N)N)C(=O)N[C@@H](CCCCN)C(=O)N[C@@H](Cc1c[nH]c2ccccc12)C(=O)N[C@@H](CCCNC(=N)N)C(N)=O)[C@@H](C)CC [VS1-40, octanoyl FWQRNIRKWR-NH2] (Octanoyl-FWQRNIRKWR-NH2)",2 µg/mL,8 µg/mL
"CC[C@H](C)[C@H](NC(=O)[C@H](CCCNC(=N)N)NC(=O)[C@@H](NC(=O)[C@H](CCCNC(=N)N)NC(=O)[C@H](Cc1c[nH]c2ccccc12)NC(=O)[C@@H]1CCCN1)[C@@H](C)CC)C(=O)N[C@@H](CCCNC(=N)N)C(=O)N[C@@H](CCCNC(=N)N)C(N)=O [VS1-34, PWRIRIRR-NH2] (H-PWRIRIRR-NH2; N-terminus assumed)",2 µg/mL,8 µg/mL
"CC[C@H](C)[C@H](NC(=O)[C@H](CCCNC(=N)N)NC(=O)[C@H](CCCNC(=N)N)NC(=O)[C@H](CCCNC(=N)N)NC(=O)[C@H](Cc1c[nH]c2ccccc12)NC(=O)[C@H](Cc1ccccc1)NC(=O)[C@@H]1CCCN1)C(=O)N[C@@H](CCCNC(=N)N)C(=O)N[C@@H](CCCNC(=N)N)C(N)=O [VS1-32, PFWRRRIRR-NH2] (H-PFWRRRIRR-NH2; N-terminus assumed)",9 µg/mL,32 µg/mL
"CCC(C)CCCCC(=O)N[C@@H](Cc1ccccc1)C(=O)N[C@@H](Cc1c[nH]c2ccccc12)C(=O)N[C@@H](CCCNC(=N)N)C(=O)N[C@H](C(=O)N[C@@H](CCCNC(=N)N)C(=O)N[C@H](C(=O)N[C@@H](CCCNC(=N)N)C(=O)N[C@@H](CCCNC(=N)N)C(N)=O)[C@@H](C)CC)[C@@H](C)CC (stereo partly drawn) [VS1-58, 6-methyloctanoyl FWRIRIRR-NH2] ({Octanoyl(6-Me)}-FWRIRIRR-NH2)",6 µg/mL,16 µg/mL
"CCC(C)(C)C(=O)N[C@@H](Cc1ccccc1)C(=O)N[C@@H](Cc1c[nH]c2ccccc12)C(=O)N[C@@H](CCCNC(=N)N)C(=O)N[C@@H](CCCNC(=N)N)C(=O)N[C@@H](Cc1ccccc1)C(=O)N[C@@H](Cc1c[nH]c2ccccc12)C(=O)N[C@@H](CCCNC(=N)N)C(=O)N[C@@H](CCCNC(=N)N)C(N)=O [VS1-62, 2,2-dimethylbutanoyl FWRRFWRR-NH2] ({Butanoyl(2,2-Me2)}-FWRRFWRR-NH2)",4 µg/mL,16 µg/mL
"CC[C@H](C)[C@H](NC(=O)[C@H](CCCNC(=N)N)NC(=O)[C@@H](NC(=O)[C@H](CCCNC(=N)N)NC(=O)[C@@H](N)CCCNC(=N)N)[C@@H](C)CC)C(=O)N[C@@H](CC(N)=O)C(=O)N[C@@H](CCCNC(=N)N)C(=O)N[C@@H](CCC(N)=O)C(=O)N[C@@H](Cc1c[nH]c2ccccc12)C(=O)N[C@@H](Cc1ccccc1)C(N)=O [VS1-14, RRIRINRQWF-NH2] (H-RRIRINRQWF-NH2; N-terminus assumed)",12 µg/mL,32 µg/mL
"CC[C@H](C)[C@H](NC(=O)[C@H](CC(N)=O)NC(=O)[C@H](CCCNC(=N)N)NC(=O)[C@H](CCC(N)=O)NC(=O)[C@H](Cc1c[nH]c2ccccc12)NC(=O)[C@H](Cc1ccccc1)NC(=O)[C@@H]1CCCN1)C(=O)N[C@@H](CCCNC(=N)N)C(=O)N[C@@H](CCCCN)C(=O)N[C@@H](Cc1c[nH]c2ccccc12)C(=O)N[C@@H](CCCNC(=N)N)C(N)=O [VS1-19, PFWQRNIRKWR-NH2] (H-PFWQRNIRKWR-NH2; N-terminus assumed)",3 µg/mL,8 µg/mL
"CC[C@H](C)[C@H](NC(=O)[C@H](CCCNC(=N)N)NC(=O)[C@@H](NC(=O)[C@H](CCCNC(=N)N)NC(=O)[C@H](Cc1c[nH]c2ccccc12)NC(=O)[C@H](Cc1ccccc1)NC(=O)C(C)(C)CC)[C@@H](C)CC)C(=O)N[C@@H](CCCNC(=N)N)C(=O)N[C@@H](CCCNC(=N)N)C(N)=O [VS1-57, 2,2-dimethylbutanoyl FWRIRIRR-NH2] ({Butanoyl(2,2-Me2)}-FWRIRIRR-NH2)",2 µg/mL,4 µg/mL
"CCCCCCCC(=O)N[C@@H](Cc1ccccc1)C(=O)N[C@@H](Cc1c[nH]c2ccccc12)C(=O)N[C@@H](CCCNC(=N)N)C(=O)N[C@H](C(=O)N[C@@H](CCCNC(=N)N)C(=O)N[C@H](C(=O)N[C@@H](CCCNC(=N)N)C(=O)N[C@@H](CCCNC(=N)N)C(N)=O)[C@@H](C)CC)[C@@H](C)CC [VS1-55, octanoyl FWRIRIRR-NH2] (Octanoyl-FWRIRIRR-NH2)",4 µg/mL,16 µg/mL
"CC[C@H](C)[C@H](NC(=O)[C@H](CCCNC(=N)N)NC(=O)[C@@H](NC(=O)[C@H](CC(N)=O)NC(=O)[C@H](CCCNC(=N)N)NC(=O)[C@H](CCC(N)=O)NC(=O)[C@H](Cc1c[nH]c2ccccc12)NC(=O)[C@@H](N)Cc1ccccc1)[C@@H](C)CC)C(=O)N[C@@H](CCCNC(=N)N)C(=O)N[C@@H](CCCNC(=N)N)C(N)=O [VS1-13, FWQRNIRIRR-NH2] (H-FWQRNIRIRR-NH2; N-terminus assumed)",8 µg/mL,32 µg/mL
"CCCCC(CC)C(=O)N[C@@H](Cc1ccccc1)C(=O)N[C@@H](Cc1c[nH]c2ccccc12)C(=O)N[C@@H](CCCNC(=N)N)C(=O)N[C@H](C(=O)N[C@@H](CCCNC(=N)N)C(=O)N[C@H](C(=O)N[C@@H](CCCNC(=N)N)C(=O)N[C@@H](CCCNC(=N)N)C(N)=O)[C@@H](C)CC)[C@@H](C)CC (stereo partly drawn) [VS1-56, 2-ethylhexanoyl FWRIRIRR-NH2] (X1-FWRIRIRR-NH2)",3 µg/mL,16 µg/mL
"CC[C@H](C)[C@H](NC(=O)[C@H](CCCNC(=N)N)NC(=O)[C@H](CCCCN)NC(=O)[C@H](Cc1c[nH]c2ccccc12)NC(=O)[C@@H](N)CCCNC(=N)N)C(=O)N[C@@H](CC(N)=O)C(=O)N[C@@H](CCCNC(=N)N)C(=O)N[C@@H](CCC(N)=O)C(=O)N[C@@H](Cc1c[nH]c2ccccc12)C(=O)N[C@@H](Cc1ccccc1)C(N)=O [VS1-16, RWKRINRQWF-NH2] (H-RWKRINRQWF-NH2; N-terminus assumed)",13 µg/mL,32 µg/mL
"CC(C)C[C@H](NC(=O)[C@H](CCCCN)NC(=O)[C@H](CCCCN)NC(=O)[C@H](CCCNC(=N)N)NC(=O)[C@H](Cc1c[nH]c2ccccc12)NC(=O)[C@H](Cc1ccccc1)NC(=O)[C@@H]1CCCN1)C(=O)N[C@@H](CCCCN)C(=O)N[C@@H](CCCNC(=N)N)C(N)=O [VS1-30, PFWRKKLKR-NH2] (H-PFWRKKLKR-NH2; N-terminus assumed)",10 µg/mL,32 µg/mL
